These results are taken from article PMC8589421, “Impact of Type II LRRK2 inhibitors on signaling and mitophagy” (Biochemical Journal, 2021).

Entries after “also recorded” stand apart in the source; their conditions may differ. Like-named read-outs stand apart in the source and are kept apart here.

The subject of experiment [1] is LRRK2 mediated phosphorylation of Rab10 at Thr73. The experiment is described as follows: Rab10 Thr73 phospho-immunoblot in wild-type MEFs. It is filed as cell-based, mouse. The note with it: for IC50: Mus musculus. The protocol: Wild-type and homozygous LRRK2 [R1441C] […] All cells were grown at 37°C, 5% (by vol) CO2 in a humidified atmosphere and regularly tested for mycoplasma contamination.
Inhibitors were dissolved in dimethyl sulfoxide (DMSO) (Sigma, #D2650). The inhibitors were diluted 1000× into cell medium. The equivalent volume of DMSO was added to the minus inhibitor controls. Experiments were performed in six-well plates, 10 cm dishes or 15 cm dishes depending on the amount of cell extract required.
Lysates were incubated on ice for 30 min and clarified by centrifugation at 20 800×g at 4°C for 20 min. Supernatants were quantified by Bradford assay (Bio-Rad Protein Assay Dye Reagent Concentrate #5000006) and samples prepared in 1× lithium dodecyl sulfate sample buffer final concentration (NuPage LDS Sample buffer 4× Invitrogen, #NP0008). When not deployed immediately, lysates were snap-frozen in liquid nitrogen and stored at −80°C until use.
Cell extracts were mixed with a quarter of a volume of NuPage LDS Sample buffer 4× Invitrogen and heated at 95°C for 5 min. […] At the end of electrophoresis, proteins were electrophoretically transferred onto the nitrocellulose membrane (GE Healthcare, Amersham Protran Supported 0.45 µm NC) at 100 V for 90 min on ice in the transfer buffer (48 mM Tris–HCl and 39 mM glycine supplemented with 20% methanol). Transferred membrane was blocked with 5% (w/v) skim milk powder dissolved in TBS-T [20 mM Tris–HCl, pH 7.5, 150 mM NaCl and 0.1% (v/v) Tween 20] at room temperature for 1 h. The membrane was typically cropped into three pieces, namely the ‘top piece’ (from the top of the membrane to 75 kDa), the ‘middle piece’ (between 75 and 30 kDa) and the ‘bottom piece’ (from 30 kDa to the bottom of the membrane). All primary antibodies were used at 1 μg/ml final concentration and incubated in TBS-T containing 5% (by mass) bovine serum albumin with exception of α-tubulin and GAPDH antibodies that were diluted 1 : 5000 and 1 : 2000, respectively. The top piece was incubated with the indicated rabbit anti-LRRK2 phosphorylation site antibody multiplexed with mouse anti-LRRK2 C-terminus total antibody. The middle piece was incubated with mouse anti-GAPDH or anti-α-tubulin antibody. The bottom pieces were incubated with indicated total and phospho-Rab antibodies. Membranes were incubated in primary antibody overnight at 4°C. Prior to secondary antibody incubation, membranes were washed three times with TBS-T for 10 min each. […] Membranes were washed with TBS-T for three times with a 10 min incubation for each wash. Protein bands were acquired via near infrared fluorescent detection using the Odyssey CLx imaging system and quantified using the Image Studio software.

The subject of another experiment is T1, LRRK2 14-3-3 binding.
T1 construct: host or cells: HEK293
The experiment can be described thus: Analysis of 14-3-3 binding in HEK293 cells overexpressing wild-type LRRK2. It is filed as cell-based, human. Particulars: 5 μM GZD-824 for 4 h, 1 μM GSK3357679A. On the procedure:
This was undertaken as described previously. Briefly, wild-type FLAG-LRRK2 was transiently expressed in HEK293 cells with HA-Rab29. Twenty-four hours post-transfection cells were lysed with lysis buffer and snap frozen. LRRK2 was immunoprecipitated from 4 mg of lysate using 20 μl anti-FLAG-M2 agarose beads (Sigma, #A2220) for 2 h in rotation at +4°C. Immunoprecipitates were washed once with lysis buffer supplemented with 0.5% (by vol) Nonidet P-40 (instead of Triton X-100) and 0.5 M NaCl followed by two washes. Samples were eluted in 2× LDS sample buffer (20 µl per 10 µl of resin) and heated at 70°C for 10 min. After centrifugation through 0.22 µm Spin X filter, the eluted protein was subjected to immunoblotting with the indicated antibodies. An amount of 10 μl of the final reaction mixture was needed for the detection of binding of endogenous 14-3-3 and 1 µl for detection of LRRK2.

The test system of the next experiment is Rab10 phosphorylation. The experiment is described as follows: Rab10 phosphorylation in primary human neutrophils. Particulars: primary human neutrophils from two donors, 45 min. It is filed as cell-based. The protocol:
Cell extracts were mixed with a quarter of a volume of NuPage LDS Sample buffer 4× Invitrogen and heated at 95°C for 5 min. […] At the end of electrophoresis, proteins were electrophoretically transferred onto the nitrocellulose membrane (GE Healthcare, Amersham Protran Supported 0.45 µm NC) at 100 V for 90 min on ice in the transfer buffer (48 mM Tris–HCl and 39 mM glycine supplemented with 20% methanol). Transferred membrane was blocked with 5% (w/v) skim milk powder dissolved in TBS-T [20 mM Tris–HCl, pH 7.5, 150 mM NaCl and 0.1% (v/v) Tween 20] at room temperature for 1 h. The membrane was typically cropped into three pieces, namely the ‘top piece’ (from the top of the membrane to 75 kDa), the ‘middle piece’ (between 75 and 30 kDa) and the ‘bottom piece’ (from 30 kDa to the bottom of the membrane). All primary antibodies were used at 1 μg/ml final concentration and incubated in TBS-T containing 5% (by mass) bovine serum albumin with exception of α-tubulin and GAPDH antibodies that were diluted 1 : 5000 and 1 : 2000, respectively. The top piece was incubated with the indicated rabbit anti-LRRK2 phosphorylation site antibody multiplexed with mouse anti-LRRK2 C-terminus total antibody. […] Protein bands were acquired via near infrared fluorescent detection using the Odyssey CLx imaging system and quantified using the Image Studio software. […]

Regarding `Cc1ccc(C(=O)Nc2ccc(CN3CCN(C)CC3)c(C(F)(F)F)c2)cc1C#Cc1cnc2[nH]ncc2c1` [GZD-824], the IC50 was 70 nM in experiment [1] (2 h, Figure 4, read-out: IC50 for dephosphorylation of Rab10, wild type MEFs (estimate in text)); 65.9 nM in experiment [1] (2 h, wild type MEFs littermate matched to LRRK2[G2019S], 2 h, panel (B), read-out: LRRK2 WT Rab10 pThr73 IC50); 86.5 nM in experiment [1] (2 h, wild type MEFs littermate matched to LRRK2[R1441C], 2 h, panel (A), read-out: LRRK2 WT Rab10 pThr73 IC50); about 300 nM in experiment [1] (2 h, wild-type MEFs, 2 h, Figure 2A, read-out: IC50 inhibition of Rab10 phosphorylation). Moreover, the “Rab10 phosphorylation level after treatment” value in experiment [1] (wild-type MEFs, 1 μM, 2 h) is on record as “almost background levels; also recorded: almost basal levels”. The “Rab10 phosphorylation over 24 h time course” value in experiment [1] (wild-type MEFs, 1 μM, 24 h) is given as “remained suppressed”. Further, the “time to 50% reduction of Rab10 phosphorylation” value in experiment [1] (wild-type MEFs, 1 μM, Figure 2C) is about 10 min. In addition, in the experiment on LRRK2 14-3-3 binding, the “impact on 14-3-3 binding to LRRK2” value is given as “no significant impact”. For the same compound, in the experiment with Rab10 phosphorylation, the “concentration giving maximal inhibition of Rab10 phosphorylation” value was 300 nM.
